Laboratory results: patent US20040087655A1, “6-Substituted indanoyl amino acid conjugates as mimics to the biological activity of coronatine” (priority 2001, published 2004)

How the values were obtained:
[1] = in particular in solution; contact with light; cited from earlier work
[2] = tested on: touch-sensitive tendrils of Bryonia dioica; test: Tendril coiling of Bryonia dioica shoots; type: in vivo; parameters: key to tendril coiling at 500 μm concentration / tendril coiling 100 μm concentration / tendril coiling 10 μm concentration: −: no coiling; +: minor coiling; ++: Considerable coiling; +++: intense coiling; conditions: for tendril coiling 10 μm concentration / tendril coiling 100 μm concentration / tendril coiling at 500 μm concentration: followed over 20 h
Procedure: Tendril coiling: To test the ability of the conjugates to induce tendril coiling, shoots of Bryonia dioica with the youngest, most well-developed tendrils were cut and immediately placed into vials with the test solution (2 ml) with the indanoyl conjugates (5-1000 μM) or coronatine (5-100 μM) and the extent of coiling was followed over a period of 20 h. The efficacy of the compounds as to their ability to induce tendril coiling was evaluated by the experimentator accordihg to the following scale: […]

[3] = tested on: Lima bean Phaseolus lunatus; test: Induction of volatile emission in cut Lima bean plantlets (headspace collection, GC-MS); type: in vivo; conditions: for induction of C16 terpenoid TMTT emission / induction of methyl salicylate emission: volatile blend, FIG. 2
Procedure: Plant material: Induction experiments were performed with plantlets of the Lima bean Phaseolus lunatus (Ferry Morse cv. Jackson Wonder Bush). Individual plants were grown from seed in a plastic pot (Ø=5.5 cm) at 23° C. and 80% humidity using daylight fluorescent tubes at ca. 270 μE m^2 st^−1 with a photophase of 14 h. Experiments were conducted with 12-16 day-old seedlings showing two fully developed leaves.
Induction experiments: Plantlets of P. lunatus with two fully developed primary leaves were cut with razor blades and immediately transferred into Eppendorf vials containing a solution of the test-substance in tap water (100 μl). Solutions of the unsubstituted prior art compound indanoyl-L-isoleucine and of 6 -ethyl indanoyl-L-isoleucine methyl ester according to the invention were applied at 10, 100 and 1000 μM. Coronatne was used as a 100 μM aqueous solution. After uptake of the solution, the plantlets were placed into vials with tap water (5 ml) and were enclosed in small desiccators (750 ml) and maintained at 25° C. for 24 h. Control experiments were conducted under identical conditions by placing freshly cut plantlets into tap water. All experiments were carried out in triplicate.
Collection and analysis of headspace volatiles: The volatiles emitted from the pre-treated plants were collected continuously on small charcoal traps (1 mg charcoal, CLSA-Filter, Le Ruisseau de Montbrun, F-09350 Daumazan sur Arize, France) over a period of 24 h using air circulation as described in J. Donath and W. Boland, Phytochemistry 1995, 39, 785-790.
After desorption of the volatiles from the carbon trap with 40 μl of a solution of 1-bromodecane (internal standard, 50 μM) in dichloromethane. The extracts were directly analysed by GC/MS. GC-conditions: Fused-silica capillary (30 m×0.25 mm) coated with DB 5 (0.25 μm). Helium at […] served as carrier gas. Separation of the compounds was achieved under programmed conditions (50° C. for 2 min, then at 10° C. min^−1 to 200° C., finally at 35° C. min^−1 to 280° C.). MS: Finnigan GCQ; GC-interface at 265° C.; scan range 35-450 Da. Individual compounds (peak area) were quantified with respect to the peak area of the internal standard.

[4] = tested on: internal level of salicylic acid in plants; test: Internal level of salicylic acid in pre-treated plants; type: in vivo; conditions: plants pre-treated with the compound

Row | Compound | stability [1] | tendril coiling 10 μm concentration [2] | tendril coiling 100 μm concentration [2] | tendril coiling at 500 μm concentration [2] | concentration necessary to induce a coiling response ([2]; tendrils of Bryonia dioica) | concentration inducing the coiling reaction (threshold concentration) ([2]; tendrils of Bryonia dioica) | induction of C16 terpenoid TMTT emission [3] | induction of methyl salicylate emission [3] | increase of salicylate (internal level of salicylic acid) [4] [fold] | up-regulation of biosynthesis of 4,8-dimethyl-nona-1,3,7-triene (DMNT) ([3]; compared with the unsubstituted prior art compound) | threshold concentration ([3]; induction of volatiles) | fold more active than the prior art compound unsubstituted at the 6-position ([3]; volatile induction, relative to 1-oxo-indanoyl-isoleucine methyl ester)
1 | 6-azido-1-oxo-indanoyl isoleucine derivative | unstable |  |  |  |  |  |  |  |  |  |  | 
2 | CC[C@H](C)[C@H](NC(=O)c1cccc2c1CCC2=O)C(=O)OC [1-oxo-indanoyl isoleucine methyl ester, 1-oxo-indanoyl-isoleucine methyl ester] |  | − | + | ++ | about 1 mM |  |  |  |  |  |  | 
3 | CCC1CC1(NC(=O)C1=C[C@H](CC)C[C@@H]2C(=O)CC[C@H]12)C(=O)O (stereo partly drawn) [coronatine] |  | ++ | +++ | +++ |  | about 2 μM | induced | induced |  |  |  | 
4 | CCc1cc2c(c(C(=O)NC(C(=O)OC)C(C)CC)c1)CCC2=O (stereo not drawn) [2-[(6-Ethyl-1-oxo-indane-4-carbonyl)-amino]-3-methyl-pentanoic acid methyl ester] |  | + | +++ | +++ |  | 20 µM | induced | induced | 8 | much more pronounced | less than 10 μM | 30-50 fold
